This is an account of results in patent publication US9302014B2, “Cell-penetrating peptides having a central hydrophobic domain” (Medical Research Council, priority 2011, dated 2016).

Assay [1] concerns dystrophin. The experiment in a line: Western blot quantification of dystrophin protein in mdx mouse muscles. The format is in vivo. The note with it: lead PPMO comparison; 8 week old mdx mice, 12.5 mg/kg IV, 2 weeks. As for the experimental part:
The RTPCR representative images (FIG. 34d) illustrate high exon skipping efficiency in all tissues analysed. This is better shown by Real Time PCR (qRT-PCR) results for the quadriceps, diaphragm and heart (FIG. 34c). The delta 23 transcript is normalised against ‘total dystrophin’ for each muscle group (n=3). […] Western blots (FIG. 34e) were performed on the tissues of each mouse and were quantified against a 50% and 10% C57BL10 control.
Four and a half month old to 5½ month old mdx mice were used in these experiments (n=3). The experiments were carried out in the Biomedical Sciences Unit, University of Oxford according to procedures authorised by the UK Home Office. […]
Control and treated muscle samples were homogenised in lysis buffer comprising 75 mM Tris-HCl (pH 6.5) and 10% Sodium Dodecyl Sulphate complemented with 5% 2-mercaptoethanol. […] Protein levels were measured by Bradford assay (Sigma) and quantified using BSA standards. […] Primary antibody was detected by binding of horseradish peroxidise-conjugated anti-mouse IgG with lumigen. Western blots were imaged (LiCOR Biosciences) and analysed using the Odyssey imaging system.
The dystrophin protein level in PPMO treated mdx muscles was quantified by western blot analysis. The density of the dystrophin band was quantified using Licor software and vinculin was used as the loading control. […]

Assay [2] concerns dystrophin. The experiment in a line: Immunohistochemical staining and quantification of dystrophin in mdx mice after single IV injection. In kind it is in vivo. The following applies: 8 week old mdx mice, single 12.5 mg/kg IV, 2 weeks after injection. The text has this: Given the potency of Pip5e-PMO in heart tissue, the aim of altering the sequence of the hydrophobic core (whilst maintaining the 5-aa length) was to identify peptides that might be more efficient at lower doses. These modifications included inversion of the hydrophobic region (Pip6a), substitution of tyrosine by isoleucine (Pip6b), substitution of glutamine in the Pip6a sequence by displacement of the arginine immediately flanking the core in the first arginine-rich flanking region (Pip6e), and a scrambled hydrophobic core sequence (Pip6f). All Pip6 peptide-PMO conjugates were administered to mdx mice as single 12.5 mg/kg intravenous injections via the tail vein and tissues were harvested 2 weeks later and assessed for activity at both RNA and protein levels.
Immunohistochemical staining quantification (FIGS. 34a, b) was performed as previously described [Malerba, A., et al., Chronic systemic therapy with low-dose morpholino oligomers ameliorates the pathology and normalizes locomotor behavior in mdx mice. Mol Ther, 2011. 19(2): p. 345-54; Arechavala-Gomeza, V., et al., Immunohistological intensity measurements as a tool to assess sarcolemma-associated protein expression. Neuropathol Appl Neurobiol, 2010. 36(4): p. 265-74.] and was achieved by taking 4 representative frames of the dystrophin staining and correlating this with laminin staining for each section (n=3) of the quadriceps, diaphragm and heart for each peptide-PMO treatment. Untreated mdx and treated mdx mice were normalised to C57BL10 mice. This method allows comparison of the staining intensity of dystrophin at the sarcolemma relative to laminin for each treatment group. Intensity ratios are normalised to C57BL10 samples and each region of interest at the sarcolemma (120 regions for each treatment group) is plotted on a scatter graph. […]
Transverse sections of tissue samples were cut (8 μm thick) for the examination of dystrophin expression. For dystrophin visualisation and quantification, sections were co-stained with rabbit-anti-dystrophin (Abcam) and rat anti-laminin (Sigma), and detected by goat-anti-rabbit IgG Alexa 594 and goat-anti-rat IgG 488 secondary antibodies respectively (Invitrogen). […] Quantitative immunohistochemistry was performed as previously described [Malerba, A., et al., Chronic systemic therapy with low-dose morpholino oligomers ameliorates the pathology and normalizes locomotor behavior in mdx mice. […] For quantification, 4 representative frames of the dystrophin and correlating laminin were taken for each section (n=3) of the quadriceps, diaphragm and heart for each treatment. […] The minimum and maximum fluorescence intensity for 120 regions were recorded for each treatment. […]

Non-standard residues stand in square brackets, D forms with d. No end group written: not given here. Ahx = NCCCCCC(=O)O; βAla = NCCC(=O)O

With “Pip9d2: Pip9 series peptide (SEQ ID Nos 320-328) conjugated to PMODMD (R[Ahx]RR[βAla]RFQILY[βAla]R[Ahx]R[βAla]; also: conjugated to PMO (PMODMD))”, the “dystrophin protein level by western blot (vinculin loading control)” value in the assay on dystrophin [1] is recorded as “negligible dystrophin production”. In addition, in the assay on dystrophin [2], the “dystrophin expression in the heart” value is “negligible dystrophin production”.
